pIC50: −log10 of the molar value.
Molecular target: BTK (Homo sapiens (Human), UniProt Q06187)
Assay: In Vitro BTK Kinase Assay: Btk-PolyGAT-LS Assay
Format: biochemical
Conditions: BTK enzyme 0.25 nM, ATP 10 μM, polyGAT 100 nM, 30 minutes incubation, TRF readout; read-out: IC50
Protocol: The purpose of the BTK in vitro assay is to determine compound potency against BTK through the measurement of IC50. […] For a typical assay, a 24 μL aliquot of a ATP/peptide master mix (final concentration; ATP 10 μM, polyGAT 100 nM) in kinase buffer (10 mM Tris-HCl pH 7.5, 10 mM MgCl2, 200 μM Na3PO4, 5 mM DTT, 0.01% Triton X-100, and 0.2 mg/ml casein) is added to each well. […] The assay is incubated for 30 minutes before being stopped with 28 μL of a 50 mM EDTA solution. […] The plate is covered and incubated for 45 minutes at room temperature.

BTK, sequence (Q06187 whole entry): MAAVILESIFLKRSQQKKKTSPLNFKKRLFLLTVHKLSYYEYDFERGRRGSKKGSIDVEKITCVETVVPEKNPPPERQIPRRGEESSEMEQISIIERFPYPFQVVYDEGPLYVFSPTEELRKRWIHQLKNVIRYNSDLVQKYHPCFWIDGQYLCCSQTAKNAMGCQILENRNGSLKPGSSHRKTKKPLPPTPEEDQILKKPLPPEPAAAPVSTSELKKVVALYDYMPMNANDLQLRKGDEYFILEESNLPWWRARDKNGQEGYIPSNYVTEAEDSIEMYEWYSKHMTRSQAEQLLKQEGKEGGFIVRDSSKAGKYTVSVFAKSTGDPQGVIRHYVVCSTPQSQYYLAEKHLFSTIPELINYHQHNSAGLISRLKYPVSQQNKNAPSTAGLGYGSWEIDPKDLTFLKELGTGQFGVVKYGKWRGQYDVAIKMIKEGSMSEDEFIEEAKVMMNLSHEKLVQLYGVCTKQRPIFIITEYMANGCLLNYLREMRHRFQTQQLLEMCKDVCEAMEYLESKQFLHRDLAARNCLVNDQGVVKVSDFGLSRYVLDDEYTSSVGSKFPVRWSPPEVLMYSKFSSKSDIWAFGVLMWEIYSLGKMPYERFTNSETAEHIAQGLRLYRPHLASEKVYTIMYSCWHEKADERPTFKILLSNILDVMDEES

Row | Compound | pIC50
1 | C=CC(=O)N1C[C@H]2C[C@@H]1C[C@@H]2Oc1nc(-c2cnn(C)c2)cn2nccc12 [Example 153, 1-((1R,4R,5S)-5-((6-(1-methyl-1H-pyrazol-4-yl)pyrazolo[1,5-a]pyrazin-4-yl)oxy)-2-azabicyclo[2.2.1]heptan-2-yl)prop-2-en-1-one] | 6.00 to 8.00
2 | C=CC(=O)N(C)[C@H]1COC[C@H](Oc2nc(-c3cnn(C)c3)cn3nccc23)C1 (racemic) [Example 97, rac-N-methyl-N-((3R,5R)-5-((6-(1-methyl-1H-pyrazol-4-yl)pyrazolo[1,5-a]pyrazin-4-yl)oxy)tetrahydro-2H-pyran-3-yl)acrylamide] | 6.00 to 8.00
3 | CC#CC(=O)N(C)[C@H]1C[C@@H](Oc2nc(-c3cnn(C)c3)c(F)n3nccc23)C1 [Example 222, N-((cis)-3-((7-fluoro-6-(1-methyl-1H-pyrazol-4-yl)pyrazolo[1,5-a]pyrazin-4-yl)oxy)cyclobutyl)-N-methylbut-2-ynamide] | 6.00 to 8.00
4 | Cn1cc(-c2cc3nccn3c(O[C@]3(C)C[C@H](N(C)C(=O)/C=C/C(F)(F)F)C3)n2)cn1 [Example 201, (E)-4,4,4-trifluoro-N-methyl-N-((1s,3s)-3-methyl-3-((7-(1-methyl-1H-pyrazol-4-yl)imidazo[1,2-c]pyrimidin-5-yl)oxy)cyclobutyl)but-2-enamide] | 8.00 to 9.00
5 | C=CC(=O)NC1CC2CC1CC2Oc1cc(-c2cnn(C)c2)cn2nccc12 (stereo not shown) [Example 82, N-(5-((6-(1-methyl-1H-pyrazol-4-yl)pyrazolo[1,5-a]pyridin-4-yl)oxy)bicyclo[2.2.1]heptan-2-yl)acrylamide] | 8.00 to 9.00
6 | C#CC(=O)N1CCC[C@H](COc2nc(-c3cnn(C)c3)cc3nccn23)C1 [Example 46] | 8.00 to 9.00
7 | C=CC(=O)N1C[C@@H]2C[C@H](Oc3nc(-c4cnn(C)c4)cn4nccc34)C[C@@H]21 (racemic) [Example 210, rac-1-((1S,3S,5S)-3-((6-(1-methyl-1H-pyrazol-4-yl)pyrazolo[1,5-a]pyrazin-4-yl)oxy)-6-azabicyclo[3.2.0]heptan-6-yl)prop-2-en-1-one] | 6.00 to 8.00
8 | C=CC(=O)NC1CN(c2cc(-c3cnn(C)c3)cn3nccc23)CC12CC2 (stereo not shown) [Example 87, N-(5-(6-(1-methyl-1H-pyrazol-4-yl)pyrazolo[1,5-a]pyridin-4-yl)-5-azaspiro[2.4]heptan-7-yl)acrylamide] | 6.00 to 8.00
9 | C=CC(=O)N1C[C@@H]2C[C@H](Oc3nc(-c4cnn(C)c4)cn4ncc(C)c34)[C@@H]2C1 [Example 198, 1-((1R,5S,6S)-6-((3-methyl-6-(1-methyl-1H-pyrazol-4-yl)pyrazolo[1,5-a]pyrazin-4-yl)oxy)-3-azabicyclo[3.2.0]heptan-3-yl)prop-2-en-1-one] | 6.00 to 8.00
10 | C[C@@H]1O[C@H]1C(=O)N1CC[C@H]2[C@@H]1C[C@@]2(C)Oc1nc(-c2cnn(C)c2)cn2nccc12 (single isomer, unassigned) [Example 194] | 6.00 to 8.00
11 | CN(C)C/C=C/C(=O)N[C@H]1CCC[C@@H](Oc2nc(-c3cnn(C)c3)cn3ncc(F)c23)C1 [Example 94, (E)-4-(dimethylamino)-N-((1S,3R)-3-((3-fluoro-6-(1-methyl-1H-pyrazol-4-yl)pyrazolo[1,5-a]pyrazin-4-yl)oxy)cyclohexyl)but-2-enamide] | 6.00 to 8.00
12 | C#CC(=O)N1CCC[C@H](Oc2nc(-c3cnn(C)c3)cc3nccn23)CC1 (single isomer, unassigned) [Example 37, (R)- or (S)-1-(4-((7-(1-methyl-1H-pyrazol-4-yl)imidazo[1,2-c]pyrimidin-5-yl)oxy)azepan-1-yl)prop-2-yn-1-one] | 8.00 to 9.00
13 | C=CC(=O)N(C)[C@H]1C[C@H](Oc2nc(-c3cnn(C)c3)cn3nccc23)C1(C)C (racemic) [Example 218, rac-N-((trans)-2,2-dimethyl-3-((6-(1-methyl-1H-pyrazol-4-yl)pyrazolo[1,5-a]pyrazin-4-yl)oxy)cyclobutyl)-N-methylacrylamide] | 8.00 to 9.00
14 | CC#CC(=O)N[C@H]1C[C@@](C)(Oc2nc(-c3cnn(C(F)(F)F)c3)cn3ncc(C)c23)C1 [Example 157, Cis N-(3-methyl-3-((3-methyl-6-(1-(trifluoromethyl)-1H-pyrazol-4-yl)pyrazolo[1,5-a]pyrazin-4-yl)oxy)cyclobutyl)but-2-ynamide] | 8.00 to 9.00
15 | Cc1c(NC(=O)/C=C/CN(C)C2CCC2)cccc1Oc1nc(-c2cnn(C)c2)cn2nccc12 [Example 135, (E)-4-(cyclobutyl(methyl)amino)-N-(2-methyl-3-((6-(1-methyl-1H-pyrazol-4-yl)pyrazolo[1,5-a]pyrazin-4-yl)oxy)phenyl)but-2-enamide] | 6.00 to 8.00
16 | C=CC(=O)N1CCC(COc2nc(-c3cnn(C)c3)cc3nccn23)CC1 [Example 44] | 6.00 to 8.00
17 | CC#CC(=O)N(CCF)[C@H]1C[C@H](Oc2nc(-c3cnn(C)c3)cn3nccc23)C1 [Example 223, N-(2-fluoroethyl)-N-((trans)-3-((6-(1-methyl-1H-pyrazol-4-yl)pyrazolo[1,5-a]pyrazin-4-yl)oxy)cyclobutyl)but-2-ynamide] | 6.00 to 8.00
18 | C=CC(=O)N(C)CCCOc1nc(-c2cnn(C)c2)cn2nccc12 [Example 182, N-methyl-N-(3-((6-(1-methyl-1H-pyrazol-4-yl)pyrazolo[1,5-a]pyrazin-4-yl)oxy)propyl)acrylamide] | 6.00 to 8.00
19 | C=CC(=O)N1CCC[C@@H](Oc2nc(-c3cnn(C)c3)cc3nccn23)C1 [Example 45] | 6.00 to 8.00
20 | C=CC(=O)N(C)[C@H]1C[C@@H](Oc2nc(-c3cnn(C)c3)cn3nc(N)cc23)C1 [Example 68, N-((cis)-3-((2-amino-6-(1-methyl-1H-pyrazol-4-yl)pyrazolo[1,5-a]pyrazin-4-yl)oxy)cyclobutyl)-N-methylacrylamide] | > 9.00
21 | C=CC(=O)N(C)[C@H]1C[C@@H](Oc2nc(-c3cnn([C@H]4CCOC4)c3)cn3nccc23)C1 [Example 156, N-methyl-N-((cis)-3-((6-(1-((S)-tetrahydrofuran-3-yl)-1H-pyrazol-4-yl)pyrazolo[1,5-a]pyrazin-4-yl)oxy)cyclobutyl)acrylamide] | > 9.00
22 | C=CC(=O)N(C)[C@H]1C[C@@H](Oc2nc(-c3cnn([C@@H]4CCOC4)c3)cn3nccc23)C1 [Example 155, N-methyl-N-((cis)-3-((6-(1-((R)-tetrahydrofuran-3-yl)-1H-pyrazol-4-yl)pyrazolo[1,5-a]pyrazin-4-yl)oxy)cyclobutyl)acrylamide] | > 9.00
23 | C=CC(=O)N1CCCC(Oc2nc(-c3cnn(C)c3)cn3ncc(Cl)c23)[C@H](F)C1 (mixture of isomers) [Example 203] | 6.00 to 8.00
24 | C=CC(=O)N1CC(C)(C)OC(C)(COc2nc(-c3cnn(C)c3)cn3nccc23)C1 (single isomer, unassigned) [Example 119, 1-(2,2,6-trimethyl-6-(((6-(1-methyl-1H-pyrazol-4-yl)pyrazolo[1,5-a]pyrazin-4-yl)oxy)methyl)morpholino)prop-2-en-1-one] | 6.00 to 8.00
25 | CC#CC(=O)Nc1cncc(Oc2nc(-c3cnn(C)c3)cn3nccc23)c1 [Example 138, N-(5-((6-(1-methyl-1H-pyrazol-4-yl)pyrazolo[1,5-a]pyrazin-4-yl)oxy)pyridin-3-yl)but-2-ynamide] | 8.00 to 9.00

From patent US20240083900A1, “PYRAZOLO[1,5-A]PYRAZINE DERIVATIVES AS BTK INHIBITORS” (BIOGEN MA INC., priority 2020, published 2024)
